Where two headings read alike, the source gives them in different places.
Assays:
[1] = tested on: Leishmania amazonensis promastigotes; assay: Alamar Blue assay against promastigotes; type: cell-based; settings: L. amazonensis promastigotes
Method: Leishmania amazonensis (MHOM/BR/77/LTB0016) promastigotes were cultured in RPMI 1640 medium (Gibco, Waltham, MA, USA), supplemented with 10 % FBS at 26 °C. Additionally, for maintenance, the promastigotes were cultured in SND medium (Sigma-Aldrich, Darmstadt, Germany) supplemented with 10 % FBS at 26 °C. Both media were supplemented with gentamicin at 10 µg/mL.
Compounds 1–5 were tested against promastigotes of Leishmania amazonensis using the colorimetric assay based on the Alamar Blue® reagent. In a 96-well plate, serial dilutions of the compounds and the promastigote form of the parasite (10^6 cells/mL) were added at a final volume of 200 µL.

[2] = tested on: L. amazonensis intracellular amastigotes; assay: Alamar Blue assay against intracellular amastigotes in murine macrophages; type: cell-based; settings: Leishmania amazonensis, Macrophage; intracellular amastigotes of L. amazonensis
Method: Briefly, in a 96-well plate, murine macrophages (2 × 10^5 cells/mL) were incubated in RPMI medium at 37 °C and 5 % CO2 atmosphere for 2–4 h. Promastigote forms of L. amazonensis (2 × 10^6 cells/mL) were added to reach a 1:10 macrophage:parasite ration, and after 24 h of incubation, the cells were washed to discard the not-introduced parasites. Serial dilutions of the compound were added in 100 µL of RPMI medium. Following 24 h of incubation, the plate was washed, and the cells were broken with SDS 0.05% for 30 s. Fresh medium was added, and 48 h later, 10% Alamar Blue® reagent was added.

[3] = Cytotoxic activity, Alamar Blue; type: cell-based; settings: mouse, murine macrophages J774A.1, 24 h
Method: Murine macrophages (J774A.1) ATCC TIB-67 were cultured in RPMI, supplemented with 10% FBS at 37 °C and 5 % CO2 atmosphere.
In a 96-well plate, macrophages (2 × 10^5 cells/mL) were added. After completing the adherence (2–4 h), macrophages were incubated with serial dilutions of compounds 1–5. […] The selectivity index (SI) was calculated as the ratio of CC50 and IC50 [38].

[4] = tested on: L. donovani promastigotes; set-up: method as in PMID 21717278; settings: L. donovani promastigotes ref 32; cited from earlier work
[5] = tested on: L. donovani axenic amastigotes; set-up: method as in PMID 21717278; settings: L. donovani axenic amastigotes ref 32; cited from earlier work
[6] = tested on: trypanothione reductase; set-up: method as in PMID 21717278; settings: cited from earlier work
[7] = tested on: Leishmania amazonensis promastigotes; assay: ATP level analysis (CellTiter-Glo); type: cell-based; settings: 24 h incubation with IC90, compared to untreated parasites
Method: (§1) After incubation for 24 h at 26 °C, samples were centrifuged (3000 rpm, 10 min, 4 °C) and resuspended in 50 µL of PBS buffer. Different events involved in parasite cell death were studied following the manufacturer’s instructions for each kit.
ATP levels were measured using the CellTiter-Glo® Luminescent Cell Viability Assay kit (Promega, Fitchburg, WI, USA) and the EnSpire Multimode Plate Reader® (PerkinElmer, Waltham, MA, USA). After 24 h of incubation with laurequinone (1), the pellet was resuspended in the buffer and the kit. After 2 min of agitation and 10 min of incubation at room temperature in the dark, the luminescence was measured with the EnSpire Multimode Plate Reader®. The results were plotted against the negative control of untreated cells. Sodium azide (20 mM) was added as a positive control.

[8] = tested on: Leishmania amazonensis promastigotes; assay: Mitochondrial membrane potential analysis (JC-1); type: cell-based; settings: 24 h incubation with IC90, JC-1
Method: as §1
The JC-1 Mitochondrial Membrane Potential Assay Kit® (Cayman Chemical, Ann Arbor, MI, USA) was used to determine whether an alteration in the mitochondrial potential occurred during cell death. The parasites treated with laurequinone were incubated with the staining solution for 20 min at 26 °C in the dark. Green and red fluorescence were measured using the EnSpire Multimode Plate Reader® (PerkinElmer). The results were expressed as the percentage relative to the untreated cells of the red (J-aggregates 540/570 nm)/green ratio (J-monomers 485/535 nm). The membrane-permeant JC-1 dye is widely used in apoptosis studies to monitor mitochondrial health. […] Consequently, mitochondrial depolarization is indicated by a decrease in the red/green fluorescence intensity ratio. Sodium azide (20 mM) was added as a positive control.

[9] = tested on: L. amazonensis promastigotes; assay: Phosphatidylserine externalization (annexin V/PI, TALI cytometer); type: cell-based, Leishmania amazonensis; settings: 24 h incubation with IC90
Method: as §1
A double-staining assay with annexin V/propidium iodide (PI) was performed using the Tali® Apoptosis Kit–Annexin V Alexa Fluor® 488 (Invitrogen^TM, Waltham, MA, USA). Briefly, after incubating the treated parasites for 24 h, they were washed with the buffer and incubated with annexin V for 20 min. Promastigotes were centrifuged and resuspended in buffer containing PI and incubated for 3 min. Finally, the stained cells were loaded into a slide and inserted in a TALI^TM image-based cytometer (Life Technologies, Carlsbad, CA, USA). Data were expressed in percentages, divided into three groups: apoptotic cells (green fluorescence), dead cells (red or red and green fluorescence), and live cells (no fluorescence), provided by TALI® data acquisition and analysis software (Life Technologies).

[10] = tested on: L. amazonensis promastigotes; assay: Reactive oxygen species analysis (CellROX Deep Red); type: cell-based, Leishmania amazonensis; settings: 24 h incubation with IC90
Method: as §1
Oxidative stress is the result of an imbalance between the production of reactive oxygen species (ROS) and the cells’ ability to remove them. The CellROX® Deep Red Reagent (ThermoFisher Scientific, Waltham, MA, USA) was used to measure the oxidative stress. […] Treated parasites were incubated and resuspended in the buffer, the kit was added, and the plate was incubated for 30 min at 26 °C in the dark. Oxidative stress is represented as red fluorescence in the images obtained with the Cy5 light cube (excitation 644 nm/emission 665 nm) of the EVOS® FL Cell Imaging System (ThermoFisher Scientific, Waltham, MA, USA). Untreated parasites were used as a negative control, and hydrogen peroxide (600 mM) was used as a positive control.

[11] = tested on: L. amazonensis promastigotes; assay: Chromatin condensation analysis (Hoechst 33342/PI); type: cell-based, Leishmania amazonensis; settings: promastigotes treated with IC90, Hoechst/PI
Method: as §1
The Invitrogen Chromatin Condensation/Dead Cell Apoptosis Kit, Hoechst 33342/propidium iodide (PI), was used to determine whether chromatin condensation was produced in the treated parasites. After adding the kit, the parasites were incubated for 30 min at 26 °C in the dark. The results were observed under the EVOS fluorescence microscope using DAPI (excitation 350 nm/emission 461 nm for Hoechst) and RFP (excitation 535 nm/emission 617 nm for PI) light cubes. The obtained images were divided into three types of results: low fluorescence of both stains when the cells were alive, intense fluorescence when the cell had condensed chromatin (programmed cell death), and intense red fluorescence when the cell had died.

[12] = tested on: L. amazonensis promastigotes; assay: Plasma membrane permeability (SYTOX Green); type: cell-based, Leishmania amazonensis; settings: 24 h incubation with IC90
Method: as §1
The SYTOX Green assay (Life Technologies, Madrid, Spain) was used to determine the damage in the plasma membrane permeability of treated cells. Parasites were incubated for 24 h with the compound and the stain was added and incubated for 15 min. […] Triton X-100, a well-known non-ionic surfactant, was added at 0.5% for 3 h before staining, as a positive control.

[13] = Leishmania amazonensis, 72 h, 72 h total, read-out: IC50 Promastigotes
[14] = 72 h total, read-out: IC50 Promastigotes

IC50 [2] [µM] | IC50 [1, 14] [µM] | SMILES | IC50 [1, 13] [µM] | CC50 at 24 h [3] [µM] | CC50 at 24 h ([3]; J774A.1 macrophages) [µM] | also measured
3.12 ± 0.29 | – | CCCCCCCCCCCCCCCCOP(=O)([O-])OCC[N+](C)(C)C [Miltefosine, miltefosine, reference compound] | 6.48 ± 0.25 | – | 72.2 ± 3.07 | –
24.3 ± 5.09 | 12.48 ± 0.05 | Cc1ccc([C@]2(C)CC[C@@H]3C[C@@]32C)c(O)c1 [Debromolaurinterol (3), debromolaurinterol] | < 15 | – | 70.1 ± 12.9 | –
– | – | CC1=CC(=O)c2c(O)cccc2C1=O [Plumbagin] | – | – | – | IC50 [4]: 340 nM; IC50 [5]: 210 nM; mechanism of action on trypanothione reductase [6]: non-competitive inhibition of trypanothione reductase
– | – | Cc1cc2c(cc1Br)[C@]1(C)CC[C@H](C)[C@]1(C)O2 [Aplysin (5), aplysin] | 54.1 | 1100 ± 40.6 | – | –
16.7 ± 6.08 | 1.87 ± 0.17 | CC1=CC(=O)C([C@]2(C)CC[C@@H]3C[C@@]32C)=CC1=O [Laurequinone (1), laurequinone] | < 2 | – | 42.1 ± 1.3 | IC50 ([1]; Leishmania amazonensis, expressed in µg/mL, read-out: IC50): 0.43 µg/mL; ATP levels [7]: no change in ATP levels; mitochondrial membrane potential (ΔΨm) [8]: significant decrease in mitochondrial membrane potential; cell population with exposed phosphatidylserine residues [9]: approximately 30%; ROS accumulation (CellROX Deep Red fluorescence) [10]: noticeable increase in visual fluorescence of CellROX Deep Red; chromatin condensation [11]: no chromatin condensation was observed; plasma membrane permeability (SYTOX Green fluorescence) [12]: no significant green fluorescence was observed

SMILES | IC50 [2] [µM] | IC50 [1, 14] [µM] | IC50 [1, 13] [µM] | CC50 at 24 h [3] [µM] | CC50 at 24 h ([3]; J774A.1 macrophages) [µM] | also measured
Cc1cc(O)c([C@]2(C)CC[C@@H]3C[C@@]32C)cc1Br [Laurinterol (2), laurinterol] | 34.7 ± 4.06 | – | 34.5 ± 6.44 | 80.1 ± 7.79 | – | –
C=C1[C@@H](C)CC[C@@]1(C)c1cc(Br)c(C)cc1O [Isolaurinterol (4), isolaurinterol] | – | 10.1 ± 1.69 | < 15 | 24.6 ± 2.37 | – | –

Reference: paper PMC10304164, “Laurequinone, a Lead Compound against Leishmania” (Marine Drugs, 2023)
